Where a name gives a salt, the structure may show the parent alone.
Molecular target: T1, Human VAP-1 enzyme (Homo sapiens, UniProt Q16853)
T1 construct: purchased R&D Systems, Inc
T1 sequence (Q16853 1-763): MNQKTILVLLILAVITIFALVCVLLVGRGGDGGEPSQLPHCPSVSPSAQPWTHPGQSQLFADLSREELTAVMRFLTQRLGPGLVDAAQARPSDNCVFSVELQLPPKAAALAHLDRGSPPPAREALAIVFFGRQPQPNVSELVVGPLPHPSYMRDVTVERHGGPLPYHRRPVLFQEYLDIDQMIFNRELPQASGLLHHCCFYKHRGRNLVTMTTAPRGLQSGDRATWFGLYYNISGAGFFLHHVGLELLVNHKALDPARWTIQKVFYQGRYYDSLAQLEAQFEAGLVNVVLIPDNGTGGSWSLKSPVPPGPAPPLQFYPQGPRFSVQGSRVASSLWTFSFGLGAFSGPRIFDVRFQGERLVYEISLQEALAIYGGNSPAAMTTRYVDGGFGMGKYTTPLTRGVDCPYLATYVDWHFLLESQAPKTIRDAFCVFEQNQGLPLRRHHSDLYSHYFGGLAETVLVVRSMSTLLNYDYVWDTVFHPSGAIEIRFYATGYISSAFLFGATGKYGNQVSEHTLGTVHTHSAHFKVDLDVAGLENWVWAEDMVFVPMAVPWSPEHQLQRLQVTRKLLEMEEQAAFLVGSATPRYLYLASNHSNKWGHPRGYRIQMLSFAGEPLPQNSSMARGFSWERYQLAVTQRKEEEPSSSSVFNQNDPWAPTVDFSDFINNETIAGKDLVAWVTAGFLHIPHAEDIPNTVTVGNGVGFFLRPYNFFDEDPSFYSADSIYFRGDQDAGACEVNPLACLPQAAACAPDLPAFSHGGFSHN
Assay: Human VAP-1 enzyme inhibition test
Assay type: biochemical
Conditions: 1 h; compound 30 nM; 14C-benzylamine 100 μM; read-out: inhibition ratio (human VAP-1 enzyme)
Method: Human VAP-1 enzyme inhibition test
This test was conducted by modifying the method of P. H. Yu et al. (Diabetologia 40 1243 (1997)). Human VAP-1 enzyme (R&D Systems, Inc.) was pre-incubated in a 96-well plate with the compound dissolved in dimethylsulfoxide at room temperature for 20 minutes. Next, in a solution to the final volume of 200 μL, the enzyme reaction solution was incubated with ^14C-benzylamine (final concentration 100 μM) at 37° C. for 1 hour. The reaction was terminated by the addition of 100 μL of 2 M citric acid solution to the reaction solution. The oxidative product was extracted using a toluene/ethyl acetate mixture and the radioactivity was measured with a liquid scintillation counter. The inhibition ratio of the compound was calculated using the following equation. Inhibition ratio={1−[VAP-1 enzyme activity after treatment with the compound]/[VAP-1 enzyme activity in the presence of dimethylsulfoxide alone without the compound]}×100

Row | SMILES | inhibition at 0.03 µM [%]
1 | CCOC(=O)CCCON=C1CN(c2ncc(-c3cccc(COC(=O)NC(=N)N)c3F)cn2)C1 [Example 114, Ethyl 4-[({1-[5-(3-{[(carbamimidoylcarbamoyl)oxy]methyl}-2-fluorophenyl)pyrimidin-2-yl]azetidin-3-ylidene}amino)oxy]butanoate] | ≥ 50
2 | N=C(N)NC(=O)OCc1cccc(-c2cnc(N3CC(=NOCc4ccccc4)C3)nc2)c1F [Example 135, 3-(2-{3-[(Benzyloxy)imino]azetidin-1-yl}pyrimidin-5-yl)-2-fluorobenzyl carbamimidoylcarbamate] | ≥ 50
3 | COC(CNC(C)=O)CON=C1CN(c2ncc(-c3cccc(COC(=O)NC(=N)N)c3F)cn2)C1 (stereo not drawn) [Example 123, 3-(2-{3-[(3-Acetamido-2-methoxypropoxy)imino]azetidin-1-yl}pyrimidin-5-yl)-2-fluorobenzyl carbamimidoylcarbamate] | ≥ 50
4 | N=C(N)NC(=O)OCc1cccc(-c2cnc(N3CC(=NOCCOCCO)C3)nc2)c1F [Example 74, 2-Fluoro-3-[2-(3-{[2-(2-hydroxyethoxy)ethoxy]imino}azetidin-1-yl)pyrimidin-5-yl]benzyl carbamimidoylcarbamate] | ≥ 50
5 | N=C(N)NC(=O)OCc1cccc(-c2cnc(N3CC(=NOCC(CO)CO)C3)nc2)c1F [Example 92, 2-Fluoro-3-[2-(3-{[3-hydroxy-2-(hydroxymethyl)propoxy]imino}azetidin-1-yl)pyrimidin-5-yl]benzyl carbamimidoylcarbamate] | ≥ 50
6 | CON=C1CN(c2ncc(-c3cccc(COC(=O)NC(=N)N)c3F)cc2C2CC2)C1 [Example 46, 3-{5-Cyclopropyl-6-[3-(methoxyimino)azetidin-1-yl]pyridin-3-yl}-2-fluorobenzyl carbamimidoylcarbamate] | ≥ 50
7 | N=C(N)NC(=O)OCc1cccc(-c2cnc(N3CC(=NOCC(O)CO)C3)nc2)c1F (stereo not drawn) [Example 93, 3-(2-{3-[(2,3-Dihydroxypropoxy)imino]azetidin-1-yl}pyrimidin-5-yl)-2-fluorobenzyl carbamimidoylcarbamate] | ≥ 50
8 | CON=C1CN(c2ncc(-c3cccc(COC(=O)NC(=N)N)c3F)cc2C(F)F)C1 [Example 45, 3-{5-(Difluoromethyl)-6-[3-(methoxyimino)azetidin-1-yl]pyridin-3-yl}-2-fluorobenzyl carbamimidoylcarbamate] | ≥ 50
9 | COCC(O)CON=C1CN(c2ncc(-c3cccc(COC(=O)NC(=N)N)c3F)cn2)C1 (stereo not drawn) [Example 104, 2-Fluoro-3-(2-{3-[(2-hydroxy-3-methoxypropoxy)imino]azetidin-1-yl}pyrimidin-5-yl)benzyl carbamimidoylcarbamate] | ≥ 50
10 | CON=C1CN(c2ncc(-c3cccc(COC(=O)NC(=N)N)c3F)cc2C#N)C1 [Example 43, 3-{5-Cyano-6-[3-(methoxyimino)azetidin-1-yl]pyridin-3-yl}-2-fluorobenzyl carbamimidoylcarbamate] | ≥ 50
11 | N=C(N)NC(=O)OCc1cccc(-c2cnc(N3CC(=NOCC(F)(F)F)C3)nc2)c1F [Example 7, 2-Fluoro-3-(2-{3-[(2,2,2-trifluoroethoxy)imino]azetidin-1-yl}pyrimidin-5-yl)benzyl carbamimidoylcarbamate] | ≥ 50
12 | CC(C)(C)OC(=O)CON=C1CN(c2ncc(-c3cccc(COC(=O)NC(=N)N)c3F)cn2)C1 [Example 108, tert-Butyl 2-[({1-[5-(3-{[(carbamimidoylcarbamoyl)oxy]methyl}-2-fluorophenyl)pyrimidin-2-yl]azetidin-3-ylidene}amino)oxy]acetate] | ≥ 50
13 | CON=C1CN(c2ncc(-c3cccc(COC(=O)NC(=N)N)c3F)cc2OC)C1 [Example 50, 2-Fluoro-3-{5-methoxy-6-[3-(methoxyimino)azetidin-1-yl]pyridin-3-yl}benzyl carbamimidoylcarbamate] | ≥ 50
14 | CC(=O)OCCON=C1CN(c2ncc(-c3cccc(COC(=O)NC(=N)N)c3F)cn2)C1 [Example 25, 2-[({1-[5-(3-{[(Carbamimidoylcarbamoyl)oxy]methyl}-2-fluorophenyl)pyrimidin-2-yl]azetidin-3-ylidene}amino)oxy]ethyl acetate] | ≥ 50
15 | CC(=O)OCC(CO)CON=C1CN(c2ncc(-c3cccc(COC(=O)NC(=N)N)c3F)cn2)C1 (stereo not drawn) [Example 77, 3-[({1-[5-(3-{[(Carbamimidoylcarbamoyl)oxy]methyl}-2-fluorophenyl)pyrimidin-2-yl]azetidin-3-ylidene}amino)oxy]-2-(hydroxymethyl)propyl acetate] | ≥ 50
16 | N=C(N)NC(=O)OCc1cccc(-c2cnc(N3CC(=NO)C3)c(F)c2)c1F [Example 107, 2-Fluoro-3-{5-fluoro-6-[3-(hydroxyimino)azetidin-1-yl]pyridin-3-yl}benzyl carbamimidoylcarbamate] | ≥ 50
17 | CCc1cc(-c2cccc(COC(=O)NC(=N)N)c2F)cnc1N1CC(=NOC)C1 [Example 47, 3-{5-Ethyl-6-[3-(methoxyimino)azetidin-1-yl]pyridin-3-yl}-2-fluorobenzyl carbamimidoylcarbamate] | ≥ 50

Further lines, results first:

Row | inhibition at 0.03 µM [%] | SMILES
18 | ≥ 50 | COc1ccc(CON=C2CN(c3ncc(-c4cccc(COC(=O)NC(=N)N)c4F)cn3)C2)cc1 [Example 136, 2-Fluoro-3-[2-(3-{[(4-methoxybenzyl)oxy]imino}azetidin-1-yl)pyrimidin-5-yl]benzyl carbamimidoylcarbamate]
19 | ≥ 50 | O=C(O)/C=C\C(=O)O.[2H]C([2H])([2H])ON=C1CN(c2ncc(-c3cccc(COC(=O)NC(=N)N)c3F)cn2)C1 [Example 194, 2-Fluoro-3-(2-{3-[(methoxy-d3)imino]azetidin-1-yl}pyrimidin-5-yl)benzyl carbamimidoylcarbamate maleate]
20 | ≥ 50 | O=C(O)C(O)C(O)C(=O)O.[2H]C([2H])([2H])ON=C1CN(c2ncc(-c3cccc(COC(=O)NC(=N)N)c3F)cn2)C1 [Example 192, 2-Fluoro-3-(2-{3-[(methoxy-d3)imino]azetidin-1-yl}pyrimidin-5-yl)benzyl carbamimidoylcarbamate 1/2 L-tartrate]
21 | ≥ 50 | CCN1CC(ON=C2CN(c3ncc(-c4cccc(COC(=O)NC(=N)N)c4F)cn3)C2)C1 [Example 142, 3-[2-(3-{[(1-Ethylazetidin-3-yl)oxy]imino}azetidin-1-yl)pyrimidin-5-yl]-2-fluorobenzyl carbamimidoylcarbamate]
22 | ≥ 50 | COC(=O)N1CC(ON=C2CN(c3ncc(-c4cccc(COC(=O)NC(=N)N)c4F)cn3)C2)C1 [Example 143, Methyl 3-[({1-[5-(3-{[(carbamimidoylcarbamoyl)oxy]methyl}-2-fluorophenyl)pyrimidin-2-yl]azetidin-3-ylidene}amino)oxy]azetidin-1-carboxylate]
23 | ≥ 50 | N=C(N)NC(=O)OCc1cccc(-c2cnc(N3CC(=NOC4CN(CCO)C4)C3)nc2)c1F [Example 146, 2-Fluoro-3-{2-[3-({[1-(2-hydroxyethyl)azetidin-3-yl]oxy}imino)azetidin-1-yl]pyrimidin-5-yl}benzyl carbamimidoylcarbamate]
24 | ≥ 50 | N=C(N)NC(=O)OCc1cccc(-c2cnc(N3CCC(=NOCc4cnn(C5CCCCO5)c4)CC3)nc2)c1F (stereo not drawn) [Example 172, 2-Fluoro-3-{2-[4-({[1-(tetrahydropyran-2-yl)-1H-pyrazol-4-yl]methoxy}imino)piperidin-1-yl]pyrimidin-5-yl}benzyl carbamimidoylcarbamate]
25 | ≥ 50 | CN(CCON=C1CCN(c2ncc(-c3cccc(COC(=O)NC(=N)N)c3F)cn2)CC1)S(C)(=O)=O [Example 157, 2-Fluoro-3-[2-(4-{[2-(N-methylmethylsulfonamido)ethoxy]imino}piperidin-1-yl)pyrimidin-5-yl]benzyl carbamimidoylcarbamate hydrochloride]
26 | ≥ 50 | CON=C1CN(c2ncc(-c3cccc(COC(=O)NC(=N)N)c3F)cn2)C1 [Example 184, 2-Fluoro-3-{2-[3-(methoxyimino)azetidin-1-yl]pyrimidin-5-yl}benzyl carbamimidoylcarbamate 1/2 L-tartrate]
27 | ≥ 50 | O=C(O)C(O)C(O)C(=O)O.[2H]C([2H])([2H])ON=C1CN(c2ncc(-c3cccc(COC(=O)NC(=N)N)c3F)cc2F)C1 [Example 204, 2-Fluoro-3-(5-fluoro-6-{3-[(methoxy-d3)imino]azetidin-1-yl}pyridin-3-yl)benzyl carbamimidoylcarbamate 1/2 L-tartrate]

Reference: US10759781B2, “Substituted guanidine derivatives” (UBE INDUSTRIES, LTD., priority 2015, dated 2020)
